Patent US20060134206A1, “Oral compositions for treatment of diseases” (priority 2003, published 2006)

Experiments:
[1] = tested on: type 2 diabetes patients; conditions: overweight type 2 diabetes patients assigned metformin; microvascular and macrovascular; cited from earlier work
[2] = In-house study: metformin co-administered with propantheline; type: in vivo; conditions: compared with metformin alone
[3] = oral, conventional metformin; cited from earlier work
[4] = cited from earlier work
[5] = tested on: human vascular ATP-dependent K+ channels; conditions: cited from earlier work
[6] = allows once daily treatment; cited from earlier work
[7] = tested on: people with diabetes; conditions: versus placebo, cited from earlier work

CN(C)C(=N)N=C(N)N [metformin]
relative risk reduction of developing any diabetes related end points [1]: 32% | AUC [2]: increased | Tmax [2]: delayed | time period over which therapeutically beneficial plasma levels were maintained [2]: extended | gastrointestinal absorption apparently complete (time after ingestion) [3]: ≤ 6 h | drug in plasma ([4]; drug perfused into the colon): not detectable | area under the plasma concentration-time profile, jejunum versus ileum perfusion ([4]; perfusion into jejunum compared with ileum): 2.5 fold

CCC1=C(C)CN(C(=O)NCCc2ccc(S(=O)(=O)NC(=O)N[C@H]3CC[C@H](C)CC3)cc2)C1=O [glimepiride]
effect on human vascular ATP-dependent K+ channels [5]: no effect | long life [6]: 9 h

CCOC(=O)[C@H](CCc1ccccc1)N[C@@H](C)C(=O)N1[C@H](C(=O)O)C[C@@H]2CCC[C@@H]21 [ramipril]
lowering of relative risk of a major cardiovascular event (myocardial infarction, stroke or cardiovascular death) ([7]; 3,577 people with diabetes, 4.5 years): 25% | lowering of absolute risk of a major cardiovascular event ([7]; 3,577 people with diabetes): 4.5% | absolute risk reduction of overt nephropathy ([7]; people with diabetes): 2.0% | reduction of relative risk of overt nephropathy ([7]; people with diabetes): 24%
